Measurements: patent publication US4792632A, “Bisacylphosphine oxides, the preparation and use thereof” (ESPE Fabrik Pharmazeutischer Praparate GmbH, priority 1984, dated 1988)
Each block holds one compound with its values, some of them ahead of it.

Tests used:
[1] = UV/visible extinction at 400 nm; format: physicochemical; settings: for εmol at 400 nm: Table 1; for Extinction at 400 nm: Table 2
[2] = Attained thickness of cured layer of resin solution (curing depth) after storage, dental radiator 20 s; settings: for Layer Thickness after 1 month / Layer Thickness after 24 hrs: 0.5% by weight photoinitiator in solution I, 20 s exposure; for Layer Thickness after 1 month: stored 1 month in absence of light; for Layer Thickness after 24 hrs: stored 1 day in absence of light; for Thickness Loss: 24 hrs versus 1 month storage
Description: 70 parts by weight of bis-acryloxymethyl-tricyclo-[5.2.1.0.^2,6 ]-decane and
30 parts by weight of 2,2-bis-4-(3-methacryloxy-2-hydroxypropoxy)-phenylpropane (Bis-GMA)
are stirred while carefully heated until a clear solution I is formed.
The solution I is cooled to room temperature and 0.5% by weight of a photoinitiator (selected from those listed in Table 2) are added with stirring until the solution is clear.
The resulting solution is introduced into a cylinder (5 mm diameter, 8 mm length; for greater thicknesses 20 mm). Thereafter the solution is exposed to radiation from a commercial dental radiator (Elipar-Visio/Espe) for 20 seconds, the polymer is removed from the cylinder, the soft or gel-like, incompletely polymerized components are removed with a plastic spatula, and the attained thickness of the layer is measured. To this end the solutions are stored prior to polymerization for 1 day and 1 month, respectively, in the absence of light.

[3] = Temperature course during polymerization of tooth filling composite; settings: 3 mm height, 20 s exposure; for Time for reaching Tmax: cylinder 3 mm diameter; for Tmax: middle of cylinder 3 mm diameter
Source text: (§1) Tooth filling composites prepared according to Example 3 with the use of the photoinitiators listed in Table 3 are filled into cylinders (3 mm diameter, 3 mm height) in the middle of which the temperature can be measured during the polymerization. After 20 seconds of exposure to light from a commercial dental radiator (Elipar-Visio lamp/Espe) the structures are taken out and the soft layer is removed with toluene. From the weight difference the amount of uncured material in mg/cm^2 at the upper and lower surface of the cylinder is calculated. Moreover, the temperature course in time is followed by the thermosensor and a measuring instrument connected thereto.

[4] = Uncured soft layer at surface of tooth filling composite; settings: 20 s exposure; for Soft Layer (amount of uncured material), upper surface: first of two values, upper surface of cylinder; for Soft Layer (amount of uncured material), lower surface: second of two values, lower surface of cylinder
Source text: as §1

Compound: Cc1ccc(C)c(P(=O)(C(=O)c2c(Cl)cccc2Cl)C(=O)c2c(Cl)cccc2Cl)c1 [Bis-(2,6-dichlorobenzoyl)-2,5-dimethylphenylphosphine Oxide]
Layer Thickness after 1 month [2]: 14.5 mm
Layer Thickness after 24 hrs [2]: 15 mm
Thickness Loss [2]: 3%
εmol at 400 nm [1]: 580
Extinction at 400 nm [1]: 580
Time for reaching Tmax [3]: 16 s
Tmax [3]: 43.7 °C
Soft Layer (amount of uncured material), upper surface [4]: 1.0 mg/cm^2
Soft Layer (amount of uncured material), lower surface [4]: 1.1 mg/cm^2

Compound: O=C(c1c(Cl)cccc1Cl)P(=O)(C(=O)c1c(Cl)cccc1Cl)c1ccc(-c2ccccc2)cc1 [bis-(2,6-dichlorobenzoyl)-4-biphenylylphosphine oxide]
εmol at 400 nm [1]: 800

Compound: O=C(c1c(Cl)cccc1Cl)P(=O)(c1ccccc1)c1ccccc1 [2,6-Dichlorobenzoyl-diphenylphosphine oxide, reference compound]
Layer Thickness after 1 month [2]: 6.5 mm
Layer Thickness after 24 hrs [2]: 7 mm
Thickness Loss [2]: 7%
Extinction at 400 nm [1]: 190

Compound: Cc1cc(C)c(C(=O)P(=O)(c2ccccc2)c2ccccc2)c(C)c1 [2,4,6-Trimethylbenzoyldiphenylphosphine oxide, reference compound]
Time for reaching Tmax [3]: 18 s
Tmax [3]: 39.8 °C
Soft Layer (amount of uncured material), upper surface [4]: 1.8 mg/cm^2
Soft Layer (amount of uncured material), lower surface [4]: 2.0 mg/cm^2

Compound: COc1c(Cl)c(C(=O)P(=O)(C(=O)c2c(Cl)c(OC)c(OC)c(OC)c2Cl)c2cc(C)ccc2C)c(Cl)c(OC)c1OC [bis-(2,6-dichloro-3,4,5-trimethoxybenzoyl)-2,5-dimethylphenylphosphine oxide]
εmol at 400 nm [1]: 640

Compound: Cc1ccc(C)c(P(=O)(C(=O)c2c(Cl)cccc2Cl)c2cc(C)ccc2C)c1 [2,6-Dichlorobenzoyl-bis-(2,5-dimethylphenyl)phosphine oxide, reference compound]
Layer Thickness after 1 month [2]: 4.1 mm
Layer Thickness after 24 hrs [2]: 5.1 mm
Thickness Loss [2]: 20%
Extinction at 400 nm [1]: 440

Compound: COc1ccc2ccccc2c1C(=O)P(=O)(C(=O)c1c(OC)ccc2ccccc12)c1cc(C)ccc1C [Bis-(2-methoxy-1-naphthoyl-2,5-dimethylphenylphosphineoxide]
εmol at 400 nm [1]: 2550

Further lines, with some results ahead:

εmol at 400 nm [1]: 505
Compound: COc1cccc(OC)c1C(=O)P(=O)(C(=O)c1c(OC)cccc1OC)c1cc(C)ccc1C [bis-(2,6-dimethoxybenzoyl)-2,5-dimethylphenylphosphine oxide]

εmol at 400 nm [1]: 607
Extinction at 400 nm [1]: 607
Compound: O=C(c1c(Cl)cccc1Cl)P(=O)(C(=O)c1c(Cl)cccc1Cl)c1ccccc1 [bis-(2,6-dichlorobenzoyl)phenylphosphine oxide]
Layer Thickness after 1 month [2]: 14.5 mm
Layer Thickness after 24 hrs [2]: 15 mm
Thickness Loss [2]: 3%

εmol at 400 nm [1]: 470
Compound: CCCCCCCCCCP(=O)(C(=O)c1c(Cl)cccc1Cl)C(=O)c1c(Cl)cccc1Cl [bis-(2,6-dichlorobenzoyl)decylphosphine oxide]

εmol at 400 nm [1]: 1040
Compound: Cc1ccc2ccccc2c1C(=O)P(=O)(C(=O)c1c(C)ccc2ccccc12)c1ccccc1 [bis-(2-methyl-1-naphthoyl)phenylphosphine oxide]

εmol at 400 nm [1]: 550
Compound: COc1cccc(OC)c1C(=O)P(=O)(C(=O)c1c(OC)cccc1OC)c1ccccc1 [bis-(2,6-dimethoxybenzoyl)phenylphosphine oxide]

εmol at 400 nm [1]: 2700
Compound: CCOc1ccc(P(=O)(C(=O)c2c(OC)ccc3ccccc23)C(=O)c2c(OC)ccc3ccccc23)cc1 [bis-(2-methoxy-1-naphthoyl)-4-ethoxyphenylphosphine oxide]

εmol at 400 nm [1]: 690
Compound: CCOc1ccc(P(=O)(C(=O)c2c(Cl)cccc2Cl)C(=O)c2c(Cl)cccc2Cl)cc1 [bis-(2,6-dichlorobenzoyl)-4-ethoxyphenylphosphine oxide]

εmol at 400 nm [1]: 1680
Compound: Cc1ccc2ccccc2c1C(=O)P(=O)(C(=O)c1c(C)ccc2ccccc12)c1ccc(-c2ccccc2)cc1 [bis-(2-methyl-1-naphthoyl)-4-biphenylylphosphine oxide]

εmol at 400 nm [1]: 620
Compound: CCCCCCCCc1ccc(P(=O)(C(=O)c2c(Cl)cccc2Cl)C(=O)c2c(Cl)cccc2Cl)cc1 [bis-(2,6-dichlorobenzoyl)-4-octylphenylphosphine oxide]
